SMILES strings stand for the structures. Values joined by “and” are separate entries in the source; they are usually repeats but may differ in a detail not shown here. Equal entries are not always repeated. Active and inactive are the calls of the source. The rule behind the calls is not given here.

Data set [1] is described as follows: Insulin levels in ob/ob mice after 13 days of oral dose at 100 mpk b.i.d. Format: ADME. As to conditions: mouse, in vivo, 100 mg/kg, 312 h.
A short description of data set [2]: Half life period of the compound in rat liver microsomes was determined. The data set is classed as ADME, Microsome.
The nature of data set [3]: Glucose levels in ob/ob mice after 13 days of oral dose at 100 mpk b.i.d. Format: ADME. As to conditions: mouse, in vivo, 100 mg/kg, 312 h.
A short description of data set [4]: Cholesterol levels in ob/ob mice after 14 days of oral dose at 100 mpk b.i.d. The data set is classed as ADME. As to conditions: mouse, in vivo, 100 mg/kg, 336 h.
Data set [5] is described as follows: Insulin levels in ob/ob mice after 14 days of oral dose at 100 mpk b.i.d. As to conditions: mouse, in vivo, 100 mg/kg, 336 h. Format: ADME.
Data set [6] can be described thus: Alanine aminotransferase (ALT) levels in ob/ob mice after 13 days of oral dose at 100 mpk b.i.d. The data set is classed as ADME. The conditions noted are these: mouse, in vivo, 100 mg/kg, 312 h.
Data set [7] is described as follows: Glycogen levels in ob/ob mice after 14 days of oral dose at 100 mpk b.i.d. The conditions noted are these: mouse, in vivo, 100 mg/kg, 336 h. The data set is classed as ADME.
The nature of data set [8]: Glucose levels in ob/ob mice after 14 days of oral dose at 100 mpk b.i.d. Format: ADME. The conditions noted are these: mouse, in vivo, 100 mg/kg, 336 h.
Data set [9] is described as follows: Liver levels in ob/ob mice after 14 days of oral dose at 100 mpk b.i.d. The data set is classed as ADME, tissue-based. As to conditions: mouse, in vivo, 100 mg/kg, 336 h.
The nature of data set [10]: Aspartate aminotransferase (AST) levels in ob/ob mice after 13 days of oral dose at 100 mpk b.i.d. The data set is classed as ADME. As to conditions: mouse, in vivo, 100 mg/kg, 312 h.
Data set [11] is described as follows: Half life period of the compound in rat hepatocytes was determined. Format: ADME, cell-based, Liver, Hepatocyte.
A short description of data set [12]: Free fatty acid (FFA) levels in ob/ob mice after 13 days of oral dose at 100 mpk b.i.d. The conditions noted are these: mouse, in vivo, 100 mg/kg, 312 h. Format: ADME.
Data set [13] is filed under the species Mus musculus. The experiment in a line: Initial weight of the ob/ob mice before oral treatment at 100 mpk b.i.d. for 14 days. The data set is classed as functional.
Data set [14] is filed under the species Mus musculus. Briefly: Initial weight of the ob/ob mice before oral treatment at 100 mpk b.i.d. for 13 days. Format: functional.
Data set [15] has as its system Rattus norvegicus. Briefly: Reduction of progesterone levels in pregnant rats after q.d. oral dosing at 3 mpk. Format: functional.
Data set [16] is described as follows: Free fatty acid (FFA) levels in ob/ob mice after 14 days of oral dose at 100 mpk b.i.d. Format: ADME. The conditions noted are these: mouse, in vivo, 100 mg/kg, 336 h.
In data set [17] the test system is Rattus norvegicus. The experiment in a line: Reduction of uterine weight in pregnant rats after q.d. oral dosing at 3 mpk. Format: functional.
Data set [18] is filed under the species Mus musculus. Briefly: Final weight of the ob/ob mice after 13 days of oral treatment at 100 mpk b.i.d. Format: functional.
In data set [19] the target is T1, Glucocorticoid receptor (Homo sapiens, UniProt P04150).
T1 sequence (P04150 whole entry): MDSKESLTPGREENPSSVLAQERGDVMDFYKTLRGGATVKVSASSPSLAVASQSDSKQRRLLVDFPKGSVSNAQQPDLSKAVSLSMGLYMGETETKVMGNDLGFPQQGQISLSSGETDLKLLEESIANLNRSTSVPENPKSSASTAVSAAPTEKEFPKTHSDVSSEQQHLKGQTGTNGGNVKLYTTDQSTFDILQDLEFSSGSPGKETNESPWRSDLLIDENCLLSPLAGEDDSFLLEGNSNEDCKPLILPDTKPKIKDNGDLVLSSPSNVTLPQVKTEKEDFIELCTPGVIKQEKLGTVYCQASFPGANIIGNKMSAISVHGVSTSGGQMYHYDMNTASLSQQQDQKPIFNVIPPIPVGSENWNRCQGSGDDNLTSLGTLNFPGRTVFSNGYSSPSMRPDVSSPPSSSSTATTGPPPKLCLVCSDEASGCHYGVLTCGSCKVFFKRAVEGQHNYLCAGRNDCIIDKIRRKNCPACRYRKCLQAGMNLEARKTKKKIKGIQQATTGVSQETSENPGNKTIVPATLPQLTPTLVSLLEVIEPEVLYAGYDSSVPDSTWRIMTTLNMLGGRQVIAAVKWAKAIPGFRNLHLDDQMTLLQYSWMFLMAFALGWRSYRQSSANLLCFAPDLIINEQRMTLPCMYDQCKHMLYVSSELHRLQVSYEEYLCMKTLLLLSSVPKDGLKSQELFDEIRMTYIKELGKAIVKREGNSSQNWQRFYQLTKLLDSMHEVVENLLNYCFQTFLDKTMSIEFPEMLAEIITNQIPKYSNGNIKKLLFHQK

In another data set the target is T2, Progesterone receptor (Homo sapiens, UniProt P06401).
T2 sequence (P06401 whole entry): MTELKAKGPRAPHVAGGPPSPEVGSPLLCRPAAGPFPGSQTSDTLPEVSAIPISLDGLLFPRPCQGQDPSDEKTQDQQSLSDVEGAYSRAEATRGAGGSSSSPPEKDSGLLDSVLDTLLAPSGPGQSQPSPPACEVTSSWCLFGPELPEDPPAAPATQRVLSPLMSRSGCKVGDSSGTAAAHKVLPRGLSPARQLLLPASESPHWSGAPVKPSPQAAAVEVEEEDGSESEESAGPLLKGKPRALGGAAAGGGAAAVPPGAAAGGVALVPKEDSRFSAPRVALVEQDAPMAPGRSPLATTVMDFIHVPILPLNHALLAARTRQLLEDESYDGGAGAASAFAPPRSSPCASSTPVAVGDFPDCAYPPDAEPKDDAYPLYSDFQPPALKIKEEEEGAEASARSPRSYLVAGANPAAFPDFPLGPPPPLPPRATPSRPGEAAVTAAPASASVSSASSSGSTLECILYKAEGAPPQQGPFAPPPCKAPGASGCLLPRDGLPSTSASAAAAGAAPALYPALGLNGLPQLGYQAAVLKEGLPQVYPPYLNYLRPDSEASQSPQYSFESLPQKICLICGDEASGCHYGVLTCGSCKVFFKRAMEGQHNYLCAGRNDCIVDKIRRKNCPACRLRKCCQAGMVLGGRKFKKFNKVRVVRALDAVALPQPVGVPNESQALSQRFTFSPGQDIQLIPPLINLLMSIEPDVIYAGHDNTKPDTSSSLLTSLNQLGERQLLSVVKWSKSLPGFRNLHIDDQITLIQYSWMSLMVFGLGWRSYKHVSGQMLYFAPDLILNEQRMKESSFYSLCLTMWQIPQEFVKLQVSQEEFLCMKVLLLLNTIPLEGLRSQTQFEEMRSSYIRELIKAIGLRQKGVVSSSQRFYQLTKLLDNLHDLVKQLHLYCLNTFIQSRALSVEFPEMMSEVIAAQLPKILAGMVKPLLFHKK
The experiment in a line: Inhibition of human progesterone receptor.

In data set [20] the target is T3, Glucocorticoid receptor (Homo sapiens) (UniProt P04150).
T3 sequence (whole entry): T1 sequence (P04150 whole entry)
The conditions noted are these: Huh-7.

Data set [21] concerns the target T1, Glucocorticoid receptor. The experiment in a line: Antagonistic activity against 5 nM Dexamethasone induced glucocorticoid receptor mediated alkaline phosphatase activity. Format: functional.

With `CC#C[C@]1(O)CC[C@H]2[C@@H]3CCC4=CC(=O)CCC4=C3[C@@H](c3ccc(N(C)C)cc3)C[C@@]21C` [MIFEPRISTONE], the Level worked out at 0.0075 µg/mL in [1]; 1410 µg/mL in [3]; 3660 µg/mL in data set [4]; 0.014 µg/mL in data set [5]; 1110 units/mL in data set [6]; 30.5 mg/gof liver in data set [7]. The Level is 1700 µg/mL in data set [8]; 1.8 nmol of pHB/min/mg of protein in data set [9]; 310 units/mL in data set [10]; 1.5 mequiv/L in data set [12]; 0.84 mequiv/L in data set [16]. For the same compound, the half-life in data set [2] is less than 19.8 min; in [11], less than 6 min. Also, the Weight was 41.7 g in the data set listed under Mus musculus [13]; 46.1 g in the data set filed under Mus musculus [14]; 48.2 g and 51.2 g in the data set filed under Mus musculus [18]. Further, the Reduction with Rattus norvegicus [15] and in the data set on Rattus norvegicus [17] was 50% each time.
As for `Cc1c(NS(C)(=O)=O)cccc1N(Cc1ccc(Oc2ccc(Br)c(OCC(=O)O)c2)cc1)Cc1ccc(F)cc1F`, the figures for the IC50 on Glucocorticoid receptor [19], on Progesterone receptor and on Glucocorticoid receptor [21] were 1.8 nM, 140 nM and 330 nM, respectively. The Agonistic activity entry in data set [20] was “inactive”.

Values taken from ChEMBL document CHEMBL1141148, “Antidiabetic activity of passive nonsteroidal glucocorticoid receptor modulators” (J Med Chem, 2005).
